Test results taken from patent US20210093521A1, “ANTIBACTERIAL ACTIVITY BY MG COMPLEX IN DEODORANT EMULSION FOR AEROSOLS, DEODORANT INCLUDING THE SAME AND USE OF THE DEODORANT” (Henkel AG & Co. KGaA, priority 2019, published 2021).

Key:
[1] = tested on: bacterial germs known to cause body odor; assay: inhibition yard test, both germs tested; format: cell-based, Staphylococcus epidermidis, Staphylococcus hominis; conditions: agent within the deodorant emulsion
From the text: The inhibition yard test (or agar diffusion test) is used to investigate the growth-inhibiting effect of substances or mixtures of substances on the most important bacterial germs known to cause body odor. For this purpose, the pathogen-containing material is spread out on a culture medium (usually on an agar layer within a Petri dish). Filter paper discs impregnated with the mixture of active substances to be tested or with a control without an active substance are placed on the bacterial layer so that the active substances can penetrate the material and spread there. If the test substance has an antimicrobial effect, clearly visible circles, so-called inhibition yards, form around the filter paper discs due to the inhibition of the pathogen growth. These can be measured in mm diameter.
An inhibition yard test was performed with deodorant emulsions containing the following potential or actual bacterial growth inhibiting additives (the amounts are given in weight %)

[2] = tested on: four bacteria that cause body odor; assay: membrane test, statements in text for all tested species; format: cell-based, Staphylococcus, Corynebacterium and Anaerococcus species; conditions: 14 h, agent or formulation in deodorant emulsion

Compound	antibacterial effect in the deodorant emulsion (inhibition zone) [1]	antibacterial effectiveness in the membrane test [2]
CCCCCCC(CCCC)C(=O)O (stereo not drawn) [Isocarb, 2-butyloctanioc acid]	no effect	
Benzalkonium chloride	good effect even in small quantities	good effect
